Data published in patent US8106055B2, “Substituted amide compounds” (Gruenenthal GmbH, priority 2007, dated 2012).
Where two headings read alike, the source gives them in different places.

How the values were obtained:
[1] = molecular target: T1, bradykinin 1 receptor (B1R) of the rat (Rattus norvegicus, UniProt P97583); assay: Functional investigation on the rat bradykinin 1 receptor (B1R), Ca2+ FLIPR assay in CHO K1 rB1R cells; assay type: cell-based; conditions: test substance 10 μM; for inhibition at 10 µM: CHO-K1, B1R antagonism rat, read-out: B1R Ant. r [10 μM] % Inhibition; for B1R Ant. r [10 μM] % Inhibition: B1R antagonism rat
T1 construct: expressed in transfected cells; host or cells: CHO K1 cells
T1 sequence (P97583 1-337): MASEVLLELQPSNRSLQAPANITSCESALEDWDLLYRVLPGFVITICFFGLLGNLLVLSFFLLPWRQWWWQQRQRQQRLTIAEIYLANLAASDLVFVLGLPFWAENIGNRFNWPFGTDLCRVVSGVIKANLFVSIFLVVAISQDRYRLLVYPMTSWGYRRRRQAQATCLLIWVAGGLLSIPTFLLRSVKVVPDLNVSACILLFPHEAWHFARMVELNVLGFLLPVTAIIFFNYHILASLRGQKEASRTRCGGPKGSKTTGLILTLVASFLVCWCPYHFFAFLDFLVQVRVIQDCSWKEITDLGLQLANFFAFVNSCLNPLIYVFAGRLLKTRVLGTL
Outline: (§1)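 Cells were dye-loaded with Fluo-4 plus probenecid, then test substances added and Ca2+ influx compared with agonist control for % activation. After 10-20 min, EC80 agonist (Lys-Des-Arg9-bradykinin human; Des-Arg9-bradykinin rat) was applied; suppression gave % inhibition and IC50 values.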

human μ opiate receptor = molecular target: T2, human μ opiate receptor (Homo sapiens, UniProt P35372); assay: Affinity for the human μ opiate receptor ([3H]-naloxone displacement, CHO-K1 receptor membrane preparation, SPA); assay type: binding; conditions: 1.5 h, test concentration 1 μM
T2 construct: purchased PerkinElmer Life Sciences, Zaventem, Belgium RB-HOM; host or cells: CHO-K1 cells (membrane preparation)
Outline: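 Membranes from CHO-K1 cells expressing the human μ opiate receptor (15-40 μg protein per well) were incubated with test compound, 1 nmol/l [3H]-naloxone and WGA-SPA beads in 50 mmol/l Tris-HCl with 0.06% BSA for 90 minutes at room temperature. Values are % inhibition of specific binding at 1 μmol/l.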

[2] = molecular target: T3, human bradykinin 1 receptor (B1R) (Homo sapiens, UniProt P46663); assay: Functional investigation on the human bradykinin 1 receptor (B1R), Ca2+ FLIPR assay in CHO K1 hB1R cells; assay type: cell-based; conditions: test substance 10 μM; for inhibition at 10 µM: CHO-K1, B1R antagonism human, read-out: B1R Ant. h [10 μM] % Inhibition; for B1R Ant. h [10 μM] % Inhibition: B1R antagonism human
T3 construct: expressed in transfected cells; host or cells: CHO K1 cells
T3 sequence (P46663 1-353): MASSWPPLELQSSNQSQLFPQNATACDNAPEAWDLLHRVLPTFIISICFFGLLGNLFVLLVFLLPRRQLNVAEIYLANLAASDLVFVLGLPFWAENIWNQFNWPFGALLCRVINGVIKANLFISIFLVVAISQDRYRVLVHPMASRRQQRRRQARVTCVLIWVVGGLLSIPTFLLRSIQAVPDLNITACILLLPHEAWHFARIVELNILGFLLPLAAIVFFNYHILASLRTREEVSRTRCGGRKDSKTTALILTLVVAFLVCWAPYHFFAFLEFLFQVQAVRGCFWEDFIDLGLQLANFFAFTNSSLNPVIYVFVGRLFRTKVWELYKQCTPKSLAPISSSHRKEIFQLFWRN
Outline: as §1

[3] = % inhibition compared with the maximum achievable inhibition
[4] = Table 3, to be read in the same way as Table 1, read-out: μ

T2 sequence (P35372 whole entry): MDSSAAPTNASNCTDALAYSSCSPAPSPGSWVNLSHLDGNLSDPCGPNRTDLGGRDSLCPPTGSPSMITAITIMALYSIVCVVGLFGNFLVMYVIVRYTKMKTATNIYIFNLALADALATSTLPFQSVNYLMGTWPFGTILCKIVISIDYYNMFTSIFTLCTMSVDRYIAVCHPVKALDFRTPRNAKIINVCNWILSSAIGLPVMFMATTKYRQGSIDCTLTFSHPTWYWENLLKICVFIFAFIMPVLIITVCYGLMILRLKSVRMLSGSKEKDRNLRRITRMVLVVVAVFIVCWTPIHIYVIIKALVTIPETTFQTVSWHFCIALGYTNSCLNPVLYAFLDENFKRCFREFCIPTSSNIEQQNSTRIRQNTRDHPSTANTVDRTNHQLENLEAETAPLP

Row | SMILES | inhibition at 10 µM [1, 3] [%] | inhibition at 1 µM (human μ opiate receptor; [4]) [%] | inhibition at 10 µM [2, 3] [%] | inhibition at 10 µM ([1]; Ca2+ FLIPR, CHO K1 rB1R cells) [%] | inhibition at 10 µM ([2]; Ca2+ FLIPR, CHO K1 hB1R cells) [%] | inhibition at 1 µM (human μ opiate receptor; Table 2, read-out: μ receptor) [%] | B1R Ant. r [10 μM] % Inhibition ([1]; Ca2+ FLIPR, CHO K1 rB1R cells) [%] | B1R Ant. h [10 μM] % Inhibition ([2]; Ca2+ FLIPR, CHO K1 hB1R cells) [%]
1 | CN1CCN(C(c2cccc(F)c2)C2CCN(C(=O)COCC3CCc4ccccc4N3S(=O)(=O)c3ccc(Cl)c(Cl)c3)CC2)CC1 (stereo not drawn) [Example 809, 2-((1-(3,4-dichlorophenylsulfonyl)-1,2,3,4-tetrahydroquinolin-2-yl)methoxy)-1-(4-((3-fluorophenyl)(4-methylpiperazin-1-yl)methyl)piperidin-1-yl)ethanone] | 87 | 6 | 109 |  |  |  |  | 
2 | COc1cc(C)c(S(=O)(=O)N2CCCC2COCC(=O)NC2CCC(C(CCc3ccccc3)N3CCOCC3)CC2)c(C)c1 (stereo not drawn) [Example 676, 2-((1-(4-methoxy-2,6-dimethylphenylsulfonyl)pyrrolidin-2-yl)methoxy)-N-(4-(1-morpholino-3-phenylpropyl)cyclohexyl)acetamide] |  | 10 |  | 106 | 93 |  |  | 
3 | O=C(COC1CCN(S(=O)(=O)c2c(Cl)cc(Cl)cc2Cl)C1)NCC1CCC(C(CCc2ccccc2)N2CCOCC2)CC1 (stereo not drawn) [Example 745, N-((4-(1-morpholino-3-phenylpropyl)cyclohexyl)methyl)-2-(1-(2,4,6-trichlorophenylsulfonyl)pyrrolidin-3-yloxy)acetamide] |  | 8 |  | 44 | 45 |  |  | 
4 | CN(CCOCC(=O)NCC1CCC(C(c2ccccc2)N2CCOCC2)CC1)S(=O)(=O)c1c(Cl)cc(Cl)cc1Cl (stereo not drawn) [Example 639, N-((4-(morpholino(phenyl)methyl)cyclohexyl)methyl)-2-(2-(2,4,6-trichloro-N-methylphenylsulfonamido)ethoxy)acetamide] |  | 3 |  | 41 | 53 |  |  | 
5 | COc1cc(C)c(S(=O)(=O)N(C)CCOCC(=O)NC2CCC(C(c3ccccc3)N3CCOCC3)CC2)c(C)c1C (stereo not drawn) [Example 619, 2-{2-[(4-methoxy-2,3,6-trimethylbenzenesulfonyl)-methylamino]-ethoxy}-N-[4-(morpholin-4-yl-phenylmethyl)-cyclohexyl]-acetamide] |  |  |  | 12 | 56 | -11 |  | 
6 | O=C(COC1CCCN(S(=O)(=O)c2c(Cl)cc(Cl)cc2Cl)C1)NC1CCC(C(CCc2ccccc2)N2CCCCC2)CC1 (stereo not drawn) [Example 673, N-(4-(3-phenyl-1-(piperidin-1-yl)propyl)cyclohexyl)-2-(1-(2,4,6-trichlorophenylsulfonyl)piperidin-3-yloxy)acetamide] |  | 71 |  | 20 | 57 |  |  | 
7 | COc1cc(C)c(S(=O)(=O)N2CCCC(OCC(=O)NC3CCC(C(CCc4ccccc4)N4CCCCC4)CC3)C2)c(C)c1 (stereo not drawn) [Example 675, 2-(1-(4-methoxy-2,6-dimethylphenylsulfonyl)piperidin-3-yloxy)-N-(4-(3-phenyl-1-(piperidin-1-yl)propyl)cyclohexyl)acetamide] |  | 37 |  | 89 | 97 |  |  | 
8 | O=C(COC1CCCN(S(=O)(=O)c2c(Cl)cc(Cl)cc2Cl)C1)NC1CCC(C(c2ccccc2)N2CCCC2)CC1 (stereo not drawn) [Example 631, N-(4-(phenyl(pyrrolidin-1-yl)methyl)cyclohexyl)-2-(1-(2,4,6-trichlorophenylsulfonyl)piperidin-3-yloxy)acetamide] |  | 88 |  | 87 | 92 |  |  | 
9 | CN(CCOCC(=O)NC1CCC(C(CCc2ccccc2)N2CCOCC2)CC1)S(=O)(=O)c1ccc(Cl)cc1Cl (stereo not drawn) [Example 660, 2-(2-(2,4-dichloro-N-methylphenylsulfonamido)ethoxy)-N-(4-(1-morpholino-3-phenylpropyl)cyclohexyl)acetamide] |  | 4 |  | 12 | 30 |  |  | 
10 | COc1cc(C)c(S(=O)(=O)N2CCCC(OCC(=O)NCC3CCC(C(c4ccccc4)N4CCOCC4)CC3)C2)c(C)c1 (stereo not drawn) [Example 730, 2-(1-(4-methoxy-2,6-dimethylphenylsulfonyl)piperidin-3-yloxy)-N-((4-(morpholino(phenyl)methyl)cyclohexyl)methyl)acetamide] |  | 11 |  | 38 | 46 |  |  | 
11 | CN(CCOCC(=O)NC1CCC(C(c2ccccc2)N2CCOCC2)CC1)S(=O)(=O)c1c(Cl)cc(Cl)cc1Cl (stereo not drawn) [Example 638, N-(4-(morpholino(phenyl)methyl)cyclohexyl)-2-(2-(2,4,6-trichloro-N-methylphenylsulfonamido)ethoxy)acetamide] |  | 2 |  |  |  |  | 21 | 37
12 | CN1CCN(C(c2ccccc2)C2CCN(C(=O)COCC3CCc4ccccc4N3S(=O)(=O)c3ccc(Cl)c(Cl)c3)CC2)CC1 (stereo not drawn) [Example 810, 2-((1-(3,4-dichlorophenylsulfonyl)-1,2,3,4-tetrahydroquinolin-2-yl)methoxy)-1-(4-((4-methylpiperazin-1-yl)(phenyl)methyl)piperidin-1-yl)ethanone] | 97 | 19 | 102 |  |  |  |  | 
13 | CN(C)C(c1ccccc1)C1CCC(CNC(=O)CCOCN(C)S(=O)(=O)c2c(Cl)cc(Cl)cc2Cl)CC1 (stereo not drawn) [Example 624, N-[4-(dimethylaminophenylmethyl)-cyclohexylmethyl]-3-{[methyl-(2,4,6-trichlorobenzenesulfonyl)-amino]-methoxy}-propionamide] |  |  |  | 81 | 104 | 98 |  | 
14 | CN(CCOCC(=O)NC1CCC(C(c2ccccc2)N2CCCC2)CC1)S(=O)(=O)c1c(Cl)cc(Cl)cc1Cl (stereo not drawn) [Example 625, N-(4-(phenyl(pyrrolidin-1-yl)methyl)cyclohexyl)-2-(2-(2,4,6-trichloro-N-methylphenylsulfonamido)ethoxy)acetamide] |  | 72 |  |  |  |  | 57 | 100
15 | CN(CCOCC(=O)NCC1CCC(C(CCc2ccccc2)N2CCCC2)CC1)S(=O)(=O)c1c(Cl)cccc1Cl (stereo not drawn) [Example 722, 2-(2-(2,6-dichloro-N-methylphenylsulfonamido)ethoxy)-N-((4-(3-phenyl-1-(pyrrolidin-1-yl)propyl)cyclohexyl)methyl)acetamide] |  | 32 |  | 89 | 101 |  |  | 
16 | CN1CCN(C(c2ccccc2)C2CCC(NC(=O)COCC3CCCN3S(=O)(=O)c3c(Cl)cc(Cl)cc3Cl)CC2)CC1 (stereo not drawn) [Example 732, N-(4-((4-methylpiperazin-1-yl)(phenyl)methyl)cyclohexyl)-2-((1-(2,4,6-trichlorophenylsulfonyl)pyrrolidin-2-yl)methoxy)acetamide] |  | 61 |  | 84 | 100 |  |  | 
17 | CN(CCOCC(=O)NCC1CCC(C(CCc2ccccc2)N2CCCC2)CC1)S(=O)(=O)c1c(Cl)cc(C(F)(F)F)cc1Cl (stereo not drawn) [Example 746, 2-(2-(2,6-dichloro-N-methyl-4-(trifluoromethyl)phenylsulfonamido)ethoxy)-N-((4-(3-phenyl-1-(pyrrolidin-1-yl)propyl)cyclohexyl)methyl)acetamide] |  | 8 |  | 51 | 98 |  |  | 
18 | O=C(COC1CCCN(S(=O)(=O)c2c(Cl)cc(Cl)cc2Cl)C1)NCC1CCC(C(c2ccccc2)N2CCOCC2)CC1 (stereo not drawn) [Example 707, N-((4-(morpholino(phenyl)methyl)cyclohexyl)methyl)-2-(1-(2,4,6-trichlorophenylsulfonyl)piperidin-3-yloxy)acetamide] |  | 28 |  | 25 | 2 |  |  | 
